Laboratory results published in publication PMC6934184, “Selective DNA-PKcs inhibition extends the therapeutic index of localized radiotherapy and chemotherapy” (The Journal of Clinical Investigation, 2019).

Molecular target: T1, PDGFRA T674I (Homo sapiens, UniProt P16234, T674I)
T1 construct: purchased Thermo Fisher Scientific (Life Technologies) SelectScreen
Test: SelectScreen Z'LYTE
Format: biochemical
Summary of the method: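 Percent values come from Thermo SelectScreen profiling of NU5455, combining activity and binding assays. CSF1R was run in Z'LYTE format at Km app ATP, and CAMK1 in Adapta format with ATP listed at 10.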

T1 sequence (P16234 24-1089 T674I): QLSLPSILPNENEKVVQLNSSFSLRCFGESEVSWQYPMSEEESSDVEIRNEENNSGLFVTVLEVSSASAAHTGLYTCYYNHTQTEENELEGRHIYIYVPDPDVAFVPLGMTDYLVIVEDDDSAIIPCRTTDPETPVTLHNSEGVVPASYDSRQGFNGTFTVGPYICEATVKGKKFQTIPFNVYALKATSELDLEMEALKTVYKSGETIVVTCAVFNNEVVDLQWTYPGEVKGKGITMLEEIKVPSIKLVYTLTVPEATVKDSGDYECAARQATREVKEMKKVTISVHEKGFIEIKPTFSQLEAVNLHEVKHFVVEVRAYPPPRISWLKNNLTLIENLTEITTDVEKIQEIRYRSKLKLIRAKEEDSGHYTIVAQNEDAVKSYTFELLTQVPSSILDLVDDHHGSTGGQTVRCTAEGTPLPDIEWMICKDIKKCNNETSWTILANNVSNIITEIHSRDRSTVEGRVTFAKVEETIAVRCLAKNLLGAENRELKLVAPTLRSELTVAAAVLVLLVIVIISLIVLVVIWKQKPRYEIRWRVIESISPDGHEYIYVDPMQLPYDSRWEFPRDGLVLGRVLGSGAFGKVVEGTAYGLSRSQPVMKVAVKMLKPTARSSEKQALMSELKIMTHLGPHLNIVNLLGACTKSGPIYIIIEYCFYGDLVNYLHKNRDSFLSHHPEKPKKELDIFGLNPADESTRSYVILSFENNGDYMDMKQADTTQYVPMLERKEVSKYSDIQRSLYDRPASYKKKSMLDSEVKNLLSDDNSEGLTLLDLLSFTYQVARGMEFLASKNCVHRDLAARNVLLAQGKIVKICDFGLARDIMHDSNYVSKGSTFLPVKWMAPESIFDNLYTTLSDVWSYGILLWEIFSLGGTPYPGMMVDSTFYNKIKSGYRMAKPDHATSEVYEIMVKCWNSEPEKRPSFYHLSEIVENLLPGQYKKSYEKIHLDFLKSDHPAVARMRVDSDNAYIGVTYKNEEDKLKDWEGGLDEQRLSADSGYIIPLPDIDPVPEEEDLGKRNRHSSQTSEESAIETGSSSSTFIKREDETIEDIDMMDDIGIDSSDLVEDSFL

CN(C(=O)CN1CCOCC1)c1ccc2sc3c(-c4cccc5c(=O)cc(N6CC7CCC(C6)O7)oc45)cccc3c2c1 [NU5455]
inhibition at 1 µM: -8.9%
